Entries after “also recorded” stand apart in the source; their conditions may differ.
Legend:
Assay type in all cases: cell-based
[1] = tested on: Nrf2; assay: Nuclear translocation of Nrf2: subcellular fractionation and Western blot of HEK293T cells transfected with wildtype Nrf2; details: FIG. 6; HEK293T cells with wildtype Nrf2, harvested 12 hours after treatment, cytoplasm vs nucleus
Experimental: HEK293T cells were transfected with a plasmid containing the wildtype sequence of Nrf2. After 24 hours the cells were treated with Apigenin. After additional 12 hours, the cells were harvested and subjected to subcellular fractionation. The presence of Nrf2 in the cytoplasm and nucleus was evaluated using Western blotting. Additionally, tubulin and histone 3 were identified by Western blot to validate the subcellular fractionation.

[2] = tested on: Nrf2 translation (entire Nrf2 ORF mRNA); assay: Western blot of Nrf2 translation in HEK 293T cells transfected with Nrf2 construct lacking amino acids 17-32; details: for Nrf2 translation (Nrf2 protein expression by blot): FIG. 3C / FIG. 4, HEK 293T cells, Nrf2 construct lacking amino acids 17-32 (no Keap1-mediated degradation)
Excerpt: (§1) FIGS. 3A to 3D show the construction of a translation reporter system to identify compounds that derepress Nrf2 translation. FIG. 3A is a schematic representation showing that the sequence of the firefly luciferase reporter gene was fused with the Seg3 fragment to create a translation reporter system i.e. a biosensor for Nrf2. […] A small library of 127 compounds containing more than 80 known antioxidants was screened to identify potential activators of Nrf2 translation. […] HEK 293T cells were transfected with a construct a Nrf2 lacking amino acids 17-32 to prevent the degradation mediated by Keap1.
HEK293T cells were transfected with an Nrf2 construct lacking amino acids that are required for KEAP1 mediated degradation. 24 hours later the cells were treated with Apigenin in incremental doses to evaluate Nrf2 translation activation by using Western blotting.

[3] = tested on: translation of Luciferase Reporter under translational control mediated by Sg3 of Nrf2; assay: Nrf2 translation biosensor screen: firefly luciferase reporter fused with Seg3, stop codons in between; library of 127 compounds; details: FIG. 3B; screen of library of 127 compounds
Excerpt: as §1
A construct containing the luciferase gene fused with the Seg3 with stop codons in between the two fragments was developed. A library of 127 well known antioxidants was screened.
A stop codon is indicated with bold letters and a dark grey shade. The sequence corresponding to sg3 is indicated in the light grey shade area. The sequence was expressed using a plasmid with a CMV promoter.

| Structure (SMILES) | nuclear translocation of Nrf2 [1] | Nrf2 translation (Nrf2 protein expression by blot) [2] | Nrf2 translation (Nrf2 protein expression by blot) ([2]; listed as apigenin) | Nrf2 translation activation, dose dependence ([2]; FIG. 5, HEK293T cells, treated 24 hours after transfection with incremental doses, Western blotting) | translation of the Luciferase Reporter under translational control mediated by Sg3 [3] |
| --- | --- | --- | --- | --- | --- |
| O=c1cc(-c2ccc(O)cc2)oc2cc(O)cc(O)c12 [Apigenin] | nuclear translocation of Nrf2 | potent activator of NRF2 translation | potent inducers of Nrf2 translation; also recorded: most potent inducer of Nrf2 translation | activates Nrf2 translation in a dose-dependent manner | promoted the translation of Nrf2; also recorded: increased the translation |
| CC(C)(C)c1cc(O)ccc1O [TBHQ] | – | no effect | – | – | – |
| O=c1cc(-c2ccc(O)c(O)c2)oc2cc(O)cc(O)c12 [luteolin] | – | increase the translation of Nrf2 | – | – | – |
| O=c1c(O)c(-c2ccc(O)c(O)c2)oc2cc(O)cc(O)c12 [quercetin] | – | increase the translation of Nrf2 | – | – | – |
| Oc1ccc(C=Cc2cc(O)cc(O)c2)cc1 [resveratrol] | – | potent inducers of Nrf2 translation | – | – | promoted the translation of Nrf2; also recorded: increased the translation |
| C[S+]([O-])CCCCN=C=S (centres unmarked) [sulforaphane] | – | no effect | – | – | – |
